Reference: the NIST ThermoML archive (doi:10.1016/j.jct.2014.07.001)

What was measured:
[1] = Drop volume
[2] = xn = mol fraction of the nth substance listed; details: Drop volume

CCCC[n+]1cccc(C)c1.F[B-](F)(F)F [1-butyl-3-methylpyridinium tetrafluoroborate]
[1]
Details	surface tension liquid-gas [mN/m]
293.15 K	45.21
303.15 K	44.48
313.15 K	43.8
323.15 K	43.24

CCCC[n+]1ccc(C)cc1.F[B-](F)(F)F [1-butyl-4-methylpyridinium tetrafluoroborate]
[1]
Details	surface tension liquid-gas [mN/m]
293.15 K	45.82
303.15 K	45.09
313.15 K	44.41
323.15 K	43.71

CCCC[n+]1ccccc1.F[B-](F)(F)F [1-butylpyridinium tetrafluoroborate]
[1]
Details	surface tension liquid-gas [mN/m]
293.15 K	46.9
303.15 K	46.3
313.15 K	45.69
323.15 K	45.11

CCC[n+]1ccccc1.F[B-](F)(F)F [1-propylpyridinium tetrafluoroborate]
[1]
Details	surface tension liquid-gas [mN/m]
293.15 K	51.29
303.15 K	50.51
313.15 K	49.79
323.15 K	49.03

CCC[n+]1ccccc1.F[B-](F)(F)F [1-propylpyridinium tetrafluoroborate] + CO
surface tension liquid-gas [mN/m], [2]
Details	293.15 K	303.15 K	313.15 K	323.15 K
x1 = 0.0478	23.84	23.07	22.2	21.35
x1 = 0.0964	25.01	24.31	23.48	22.68
x1 = 0.1993	27.35	26.84	26.18	25.55
x1 = 0.3036	29.78	29.49	28.99	28.48
x1 = 0.3934	32.15	31.84	31.46	31.02
x1 = 0.4987	35.23	34.81	34.46	34.04
x1 = 0.5926	38.18	37.63	37.21	36.76
x1 = 0.6946	41.44	40.83	40.29	39.77
x1 = 0.7836	44.31	43.66	43.04	42.45
x1 = 0.8822	47.5	46.81	46.15	45.44
x1 = 0.945	49.5	48.78	48.1	47.36
x1 = 1	51.29	50.51	49.79	49.03

CCO [ethanol]
[1]
Details	surface tension liquid-gas [mN/m]
293.15 K	22.28
303.15 K	21.49
313.15 K	20.66
323.15 K	19.84

CCO [ethanol] + CCCC[n+]1ccc(C)cc1.F[B-](F)(F)F
[2], x2 = 0
Details	surface tension liquid-gas [mN/m]
293.15 K	22.28
303.15 K	21.49
313.15 K	20.66
323.15 K	19.84

CCO [ethanol] + CCCC[n+]1cccc(C)c1.F[B-](F)(F)F
[2], x2 = 0
Details	surface tension liquid-gas [mN/m]
293.15 K	22.28
303.15 K	21.49
313.15 K	20.66
323.15 K	19.84

CCO [ethanol] + CCCC[n+]1ccccc1.F[B-](F)(F)F
[2], x2 = 0
Details	surface tension liquid-gas [mN/m]
303.15 K	21.49
313.15 K	20.66
323.15 K	19.84

CO [methanol]
[1]
Details	surface tension liquid-gas [mN/m]
293.15 K	22.6
303.15 K	21.81
313.15 K	20.93
323.15 K	20.05

CO [methanol] + CCCC[n+]1ccc(C)cc1.F[B-](F)(F)F
[2], x2 = 0
Details	surface tension liquid-gas [mN/m]
293.15 K	22.6
303.15 K	21.81
313.15 K	20.93
323.15 K	20.05

CO [methanol] + CCCC[n+]1cccc(C)c1.F[B-](F)(F)F
[2], x2 = 0
Details	surface tension liquid-gas [mN/m]
293.15 K	22.6
303.15 K	21.81
313.15 K	20.93
323.15 K	20.05

CO [methanol] + CCCC[n+]1ccccc1.F[B-](F)(F)F
[2], x2 = 0
Details	surface tension liquid-gas [mN/m]
293.15 K	22.6
303.15 K	21.81
313.15 K	20.93
323.15 K	20.05

CO [methanol] + CCC[n+]1ccccc1.F[B-](F)(F)F
[2], x2 = 0
Details	surface tension liquid-gas [mN/m]
293.15 K	22.6
303.15 K	21.81
313.15 K	20.93
323.15 K	20.05
